PubChem BioAssay (NCI)
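In this assay, cells in 96-well plates receive the compound at five concentrations for 48 hours. Endpoints are linearly interpolated between the surrounding concentrations. GI50 = concentration required for 50% inhibition of growth. TGI marks complete inhibition of growth.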

Assays:
Test in all cases: NCI-60 cell line screen, 48 h
CAKI-1 renal = test system: CAKI-1 renal
786-0 renal = test system: 786-0 renal
ACHN renal = test system: ACHN renal
A549 NSCLC = test system: A549 NSCLC
KM12 colon = test system: KM12 colon
SK-MEL-28 melanoma = test system: SK-MEL-28 melanoma
EKVX NSCLC = test system: EKVX NSCLC
HT29 colon = test system: HT29 colon
RXF 393 renal = test system: RXF 393 renal
SR leukemia = test system: SR leukemia

SMILES	TGI (CAKI-1 renal)	TGI (786-0 renal)	TGI (ACHN renal)	TGI (A549 NSCLC)	TGI (KM12 colon)	TGI (SK-MEL-28 melanoma)	TGI (EKVX NSCLC)	TGI (HT29 colon)	TGI (RXF 393 renal)	GI50 (786-0 renal)	GI50 (ACHN renal)	GI50 (A549 NSCLC)	GI50 (KM12 colon)	GI50 (SK-MEL-28 melanoma)	GI50 (EKVX NSCLC)	GI50 (HT29 colon)	GI50 (SR leukemia)	TGI (SR leukemia)	GI50 (RXF 393 renal)	GI50 (CAKI-1 renal)
Cc1ccc2nc(-c3ccccc3)c(N=O)n2c1	> 100 µM	> 100 µM	> 100 µM	> 100 µM	> 100 µM	> 100 µM	79.5 µM	> 100 µM	> 100 µM	–	–	–	–	–	–	–	–	–	–	–
O=c1nc(NC(c2ccccc2)(c2ccccc2)c2ccccc2)ccn1CCNCCn1ccc(NC(c2ccccc2)(c2ccccc2)c2ccccc2)nc1=O	> 100 µM	31.5 µM	> 100 µM	> 100 µM	11.9 µM	22.2 µM	63.6 µM	24.5 µM	25.6 µM	–	–	–	–	–	–	–	–	–	–	–
Cc1ccc([N+](=O)[O-])cc1NC(=O)c1cccc([N+](=O)[O-])c1O	89.7 µM	> 100 µM	95.9 µM	> 100 µM	87.2 µM	51.2 µM	72 µM	> 100 µM	27.7 µM	–	–	–	–	–	–	–	–	–	–	–
CN(C)CCNC(=O)c1cccc2[nH]c(-c3cccnc3)nc12	88.1 µM	55.6 µM	37 µM	43.5 µM	> 100 µM	83.8 µM	56.5 µM	92.8 µM	33.8 µM	–	–	–	–	–	–	–	–	–	–	–
CCOC(=O)/C(=C\c1ccc(C#N)cc1)C(C)=O	> 100 µM	32.9 µM	68.6 µM	> 100 µM	43 µM	–	> 100 µM	> 100 µM	30.6 µM	–	–	–	–	–	–	–	–	–	–	–
COc1ccc(/C(=N\O)c2cc(C)c(OC)c(C)c2)cc1O	–	> 100 µM	> 100 µM	> 100 µM	> 100 µM	> 100 µM	> 100 µM	11.8 µM	> 100 µM	0.0407 µM	< 0.01 µM	0.039 µM	< 0.01 µM	20.9 µM	0.0613 µM	0.0446 µM	< 0.01 µM	> 100 µM	< 0.01 µM	–
Cc1c(C(=O)CC(=O)C(=O)Nc2ccc(Cl)cc2)[n+](=O)c2ccccc2n1[O-]	> 100 µM	> 100 µM	> 100 µM	> 100 µM	> 100 µM	> 100 µM	> 100 µM	–	–	–	–	–	–	–	–	–	–	–	–	–
COc1ccc(S(=O)(=O)N/N=C/c2cc(I)cc([N+](=O)[O-])c2O)cc1OC	85.3 µM	> 100 µM	> 100 µM	> 100 µM	> 100 µM	–	> 100 µM	> 100 µM	–	–	–	–	–	–	–	–	–	–	–	–
COc1cc(Cl)cc(-c2nn(-c3cccc(NC(=O)Nc4cc(C(F)(F)F)cc(C(F)(F)F)c4)c3)cc2-c2ccncc2)c1	4.4 µM	2.64 µM	12.7 µM	5.62 µM	2.77 µM	4.83 µM	–	2.38 µM	4.09 µM	0.821 µM	0.401 µM	0.386 µM	0.447 µM	1.07 µM	–	0.443 µM	0.439 µM	3.51 µM	1.38 µM	0.426 µM
COc1cc(C(O)C(=O)c2nc3ccc([N+](=O)[O-])cc3[nH]c2=O)ccc1O (stereo unspecified)	> 100 µM	> 100 µM	> 100 µM	> 100 µM	> 100 µM	> 100 µM	> 100 µM	> 100 µM	–	–	–	–	–	–	–	–	–	> 100 µM	–	–
Cc1cc(NS(=O)(=O)c2ccc(NC(=O)c3ccc(Cl)c4c(Nc5ccc(S(=O)(=O)N=C(N)N)cc5)c5ccccc5nc34)cc2)no1	–	> 100 µM	> 100 µM	–	> 100 µM	> 100 µM	> 100 µM	> 100 µM	48.6 µM	–	–	–	–	–	–	–	–	67.9 µM	–	–
O=C1C2C=CC(C2)C(c2ccc(O)cc2)N1O (stereo unspecified)	> 100 µM	> 100 µM	> 100 µM	> 100 µM	> 100 µM	> 100 µM	> 100 µM	> 100 µM	–	–	–	–	–	–	–	–	–	> 100 µM	–	–
C[N+]1(C)C/C(=C\c2ccccc2)C(=O)/C(=C/c2ccccc2)C1	–	> 100 µM	> 100 µM	> 100 µM	> 100 µM	> 100 µM	–	> 100 µM	> 100 µM	–	–	–	–	–	–	–	–	> 100 µM	–	–
CNCCNc1c2c(c(NCCNC)c3[nH]ccc13)C(=O)c1ccccc1C2=O	1.15 µM	0.821 µM	0.306 µM	0.427 µM	0.374 µM	11.1 µM	4.13 µM	5.23 µM	0.752 µM	0.0646 µM	0.0434 µM	0.0904 µM	0.0892 µM	4.18 µM	1.33 µM	1.35 µM	–	–	0.214 µM	0.278 µM
C=C1C(=O)O[C@H]2[C@H]1CCC(/C=N/c1ncc(Br)cc1N)=C\CC[C@@]1(C)O[C@@H]21	–	3.52 µM	4.9 µM	25.3 µM	20.2 µM	6.07 µM	11.8 µM	5.52 µM	2.9 µM	1.72 µM	1.41 µM	10.9 µM	5.07 µM	2.37 µM	2.36 µM	1.93 µM	1.32 µM	7.68 µM	1.38 µM	–
COC(=O)NN=C1C(C)(C)C(=O)C1(C)C	–	> 100 µM	> 100 µM	> 100 µM	> 100 µM	> 100 µM	> 100 µM	> 100 µM	> 100 µM	–	–	–	–	–	–	–	–	–	–	–
O=c1[nH]c(=O)c2cc(C3CC(O)C(CO)O3)ccc2[nH]1 (stereo unspecified)	> 100 µM	> 100 µM	–	> 100 µM	–	> 100 µM	> 100 µM	> 100 µM	> 100 µM	> 100 µM	–	> 100 µM	–	> 100 µM	> 100 µM	> 100 µM	–	–	> 100 µM	> 100 µM
Oc1ccccc1CNCC12CC3CC(CC(C3)C1)C2	> 100 µM	33.5 µM	> 100 µM	–	66 µM	52.7 µM	–	47.7 µM	40.3 µM	16.2 µM	39.6 µM	–	23.7 µM	23.6 µM	–	15.2 µM	20.4 µM	58.6 µM	16.7 µM	37 µM
CCCCCCCCCCCCOC1C(C(COC2OC(C3COC(C)(C)O3)C3OC(C)(C)OC23)NC(=O)NS(=O)(=O)c2ccccc2)OC2OC(C)(C)OC21 (stereo unspecified)	20 µM	11.6 µM	15.2 µM	27.3 µM	31.5 µM	28 µM	16.8 µM	16.4 µM	7.47 µM	3.51 µM	4.22 µM	4.58 µM	5.15 µM	9.61 µM	3.89 µM	4.32 µM	–	–	3.02 µM	7.14 µM
CCC[CH2][Sn]([CH2]CCC)([CH2]CCC)[O]C(=O)c1ccc(Cl)cc1Cl	0.255 µM	0.259 µM	0.34 µM	0.328 µM	0.283 µM	0.302 µM	0.273 µM	0.283 µM	0.321 µM	0.13 µM	0.171 µM	0.164 µM	0.139 µM	0.159 µM	0.099 µM	0.125 µM	–	–	0.151 µM	0.0785 µM
CC1=NN(C(=O)CC(=O)NC(=O)CC(=O)Nc2ccccc2F)C(=O)C1N=Nc1ccc([N+](=O)[O-])cc1 (stereo unspecified)	> 100 µM	64.6 µM	> 100 µM	86.2 µM	> 100 µM	> 100 µM	96.2 µM	45.9 µM	–	–	–	–	–	–	–	–	–	–	–	–
COc1ccc2c(c1)Oc1cc(O)ccc1[C@@H]2c1ccccc1C(=O)NC(C)c1ccccc1 (stereo partly specified)	42.2 µM	27.9 µM	41.1 µM	42.5 µM	33.9 µM	31.3 µM	31.5 µM	34 µM	29.9 µM	–	–	–	–	–	–	–	–	–	–	–
O=C(NCCCCCCNC(=O)OCCSCCn1cc(C(=O)NC(=O)OCc2ccccc2)c(=O)[nH]c1=O)OCCSCCn1cc(C(=O)NC(=O)OCc2ccccc2)c(=O)[nH]c1=O	> 100 µM	> 100 µM	> 100 µM	> 100 µM	> 100 µM	–	> 100 µM	> 100 µM	> 100 µM	–	–	–	–	–	–	–	–	–	–	–
FC(F)(F)c1ccc(C#Cc2ccccc2C#Cc2ccccc2)cc1	> 100 µM	> 100 µM	> 100 µM	> 100 µM	> 100 µM	> 100 µM	> 100 µM	> 100 µM	65.6 µM	46.1 µM	40.9 µM	49.9 µM	31.4 µM	> 100 µM	33.6 µM	42.6 µM	–	–	23.4 µM	46.1 µM
COc1ccc(S(=O)(=O)Nc2cc(/C=C\c3cc(OC)c(OC)c(OC)c3)ccc2OC)cc1	20.6 µM	95.6 µM	17.3 µM	> 100 µM	> 100 µM	> 100 µM	–	8.22 µM	> 100 µM	0.361 µM	0.0587 µM	0.159 µM	0.0738 µM	0.143 µM	–	0.0809 µM	0.0709 µM	4.18 µM	0.0814 µM	0.0515 µM
CC(C)(CN1CCCCC1)C(=O)/C=C/c1ccc(Cl)cc1	–	9.68 µM	17.2 µM	14.4 µM	11.2 µM	22.6 µM	10 µM	11.7 µM	13.8 µM	–	–	–	–	–	–	–	–	7.15 µM	–	–
COC(=O)[C@]12CC=C3O[C@@H]4OC5(CCCCC5)O[C@@H]4C3[C@@H]1C(=O)CCC2=O (stereo partly specified)	> 100 µM	> 100 µM	> 100 µM	> 100 µM	> 100 µM	> 100 µM	> 100 µM	> 100 µM	–	–	–	–	–	–	–	–	–	–	–	–
